Experimental data: ChEMBL document CHEMBL4041546, “Synthesis and antimicrobial studies of novel derivatives of 4-(4-formyl-3-phenyl-1H-pyrazol-1-yl)benzoic acid as potent anti-Acinetobacter baumannii agents” (Bioorg Med Chem Lett, 2017)
≈ marks a conversion by molar mass, not a printed value. Calls of active or inactive are those of the source. The calls are words filed in the database; no cut-off is given here.

Legend:
[1] = system: Bacillus subtilis; experiment: Antibacterial activity against Bacillus subtilis by disk diffusion assay; format: functional
[2] = system: Staphylococcus aureus; experiment: Antibacterial activity against methicillin-resistant Staphylococcus aureus ATCC 43300 by disk diffusion assay; format: functional
[3] = system: Staphylococcus aureus; experiment: Antibacterial activity against methicillin-resistant Staphylococcus aureus ATCC 43300; format: functional
[4] = Cytotoxicity against HEK293 cells; format: cell-based; details: human
[5] = system: Acinetobacter baumannii; experiment: Antibacterial activity against Acinetobacter baumannii ATCC 19606 by disk diffusion assay; format: functional
[6] = system: Escherichia coli; experiment: Antibacterial activity against Escherichia coli by disk diffusion assay; format: functional
[7] = system: Acinetobacter baumannii; experiment: Antibacterial activity against Acinetobacter baumannii ATCC 19606; format: functional; details: ATCC 19606 = CIP 70.34 = JCM 6841
[8] = system: Acinetobacter baumannii; experiment: Antibacterial activity against Acinetobacter baumannii ATCC 19606 at 0.1 M by disk diffusion assay; format: functional, ATCC 19606 = CIP 70.34 = JCM 6841
[9] = system: Acinetobacter baumannii; experiment: Antibacterial activity against Acinetobacter baumannii ATCC 19606 at 0.01 M by disk diffusion assay; format: functional, ATCC 19606 = CIP 70.34 = JCM 6841
[10] = system: Acinetobacter baumannii; experiment: Potency index, ratio of chloramphenicol MIC to compound MIC for Acinetobacter baumannii ATCC 19606; format: functional, ATCC 19606 = CIP 70.34 = JCM 6841
[11] = ATCC 19606 = CIP 70.34 = JCM 6841

Row | SMILES | inhibition zone (IZ) [1] | inhibition zone (IZ) [2] | further results
1 | Cc1cc(NCc2cn(-c3ccc(C(=O)O)cc3)nc2-c2ccccc2)ccc1F | 16 mm | 15 mm | 
2 | O=C(O)c1ccc(-n2cc(/C=N/NC(=O)c3cccnc3)c(-c3ccccc3)n2)cc1 | inactive | inactive | 
3 | O=C(O)c1ccc(-n2cc(/C=N/NC(=O)c3ccccc3F)c(-c3ccccc3)n2)cc1 | 11 mm | 10 mm | 
4 | COc1ccc(C(=O)N/N=C/c2cn(-c3ccc(C(=O)O)cc3)nc2-c2ccccc2)cc1 | 11 mm | 8 mm | 
5 | O=C(O)c1ccc(-n2cc(CNc3ccc(F)c(Cl)c3)c(-c3ccccc3)n2)cc1 | 11 mm | 11 mm | 
6 | O=C(O)c1ccc(-n2cc(/C=N/NC(=O)c3ccc4ccccc4c3O)c(-c3ccccc3)n2)cc1 | inactive | inactive | 
7 | O=C(O)c1ccc(-n2cc(CNc3cc(C(F)(F)F)cc(C(F)(F)F)c3)c(-c3ccccc3)n2)cc1 | 25 mm | 22 mm | MIC [3]: 32 µg/mL (≈ 63.3 µM); CC50 [4]: > 32 µg/mL
8 | N/N=C/c1cn(-c2ccc(C(=O)O)cc2)nc1-c1ccccc1 | 7 mm | 7 mm | inhibition zone (IZ) [5, 11]: inactive; inhibition zone (IZ) [6]: inactive
9 | O=C(O)c1ccc(-n2cc(CNc3ccc(F)c([N+](=O)[O-])c3)c(-c3ccccc3)n2)cc1 | 12 mm | 14 mm | 
10 | O=C(O)c1ccc(-n2cc(CNc3ccc(Cl)c(Cl)c3)c(-c3ccccc3)n2)cc1 | 11 mm | 11 mm | MIC [3]: 16 µg/mL (≈ 36.5 µM); CC50 [4]: 18 µg/mL (≈ 41.1 µM)
11 | O=C(O)c1ccc(-n2cc(CNc3cc(C(=O)O)cc(C(=O)O)c3)c(-c3ccccc3)n2)cc1 | 9 mm | 10 mm | 
12 | O=C(O)c1ccc(-n2cc(CNc3ccc(CCO)cc3)c(-c3ccccc3)n2)cc1 | 10 mm | 9 mm | 
13 | O=C(O)c1ccc(-n2cc(/C=N/Nc3ccc(Br)cc3)c(-c3ccccc3)n2)cc1 | 10 mm | 10 mm | inhibition zone (IZ) [5]: 42 mm; inhibition zone (IZ) [6]: inactive; MIC [7]: 8 µg/mL (≈ 17.3 µM); CC50 [4]: > 32 µg/mL
14 | O=C(O)c1ccc(-n2cc(CNc3cccc(C(=O)O)c3)c(-c3ccccc3)n2)cc1 | inactive | inactive | 
15 | O=C(O)c1ccc(-n2cc(/C=N/Nc3ccc(Cl)cc3Cl)c(-c3ccccc3)n2)cc1 | 11 mm | 10 mm | inhibition zone (IZ) [5, 11]: inactive; inhibition zone (IZ) [6]: inactive
16 | O=C(O)c1cn(C2CC2)c2cc(N3CCNCC3)c(F)cc2c1=O [CIPROFLOXACIN] | 44 mm | 36 mm | inhibition zone (IZ) [5]: 32 - 37 mm; inhibition zone (IZ) [6]: 39 mm; MIC [7]: 1.56 µg/mL (≈ 4.71 µM)
17 | O=C(O)c1ccc(-n2cc(CNc3ccc(Br)c(C(F)(F)F)c3)c(-c3ccccc3)n2)cc1 | 12 mm | 15 mm | MIC [3]: 32 µg/mL (≈ 62 µM); CC50 [4]: > 32 µg/mL
18 | O=C(O)c1ccc(-n2cc(/C=N/Nc3ccc([N+](=O)[O-])cc3)c(-c3ccccc3)n2)cc1 | inactive | inactive | inhibition zone (IZ) [5]: 22 mm; inhibition zone (IZ) [6]: inactive
19 | O=C(O)c1ccc(-n2cc(/C=N/NC(=O)c3ccccc3)c(-c3ccccc3)n2)cc1 | 8 mm | 8 mm | 
20 | O=C(O)c1ccc(-n2cc(/C=N/NC(=O)c3ccncc3)c(-c3ccccc3)n2)cc1 | inactive | inactive | 
21 | Cc1ccc(NCc2cn(-c3ccc(C(=O)O)cc3)nc2-c2ccccc2)cc1Cl | 16 mm | 13 mm | MIC [3]: 16 µg/mL (≈ 38.3 µM); CC50 [4]: 20 µg/mL (≈ 47.9 µM)

Row | SMILES | inhibition zone (IZ) [1] | inhibition zone (IZ) [2] | further results
22 | O=C(O)c1ccc(-n2cc(/C=N/Nc3ccccc3)c(-c3ccccc3)n2)cc1 | 11 mm | 10 mm | inhibition zone (IZ) [5]: 28 mm; inhibition zone (IZ) [6]: inactive
23 | O=C(O)c1ccc(-n2cc(/C=N/Nc3ccc(F)cc3)c(-c3ccccc3)n2)cc1 | 18 mm | 16 mm | inhibition zone (IZ) [8]: >85 mm; inhibition zone (IZ) [9]: 32 mm; inhibition zone (IZ) [6]: 8 mm; MIC [7]: 8 µg/mL (≈ 20 µM); CC50 [4]: > 32 µg/mL
24 | O=C(O)c1ccc(-n2cc(CNc3ccc(Cl)c(C(F)(F)F)c3)c(-c3ccccc3)n2)cc1 | 17 mm | 17 mm | MIC [3]: 32 µg/mL (≈ 67.8 µM); CC50 [4]: > 32 µg/mL
25 | O=C(O)c1ccc(-n2cc(/C=N/NC(=O)c3ccccc3O)c(-c3ccccc3)n2)cc1 | inactive | inactive | 
26 | NC(=S)N/N=C/c1cn(-c2ccc(C(=O)O)cc2)nc1-c1ccccc1 | inactive | inactive | 
27 | COC(=O)N/N=C/c1cn(-c2ccc(C(=O)O)cc2)nc1-c1ccccc1 | inactive | inactive | 
28 | Cc1ccc(S(=O)(=O)N/N=C/c2cn(-c3ccc(C(=O)O)cc3)nc2-c2ccccc2)cc1 | 11 mm | 12 mm | 
29 | NC(=O)N/N=C/c1cn(-c2ccc(C(=O)O)cc2)nc1-c1ccccc1 | inactive | inactive | 
30 | Cc1cc(NCc2cn(-c3ccc(C(=O)O)cc3)nc2-c2ccccc2)ccc1Br | 17 mm | 15 mm | MIC [3]: 16 µg/mL (≈ 34.6 µM); CC50 [4]: 17.9 µg/mL (≈ 38.7 µM)
31 | O=C(O)c1ccc(-n2cc(/C=N/NC(=O)c3ccc(O)cc3)c(-c3ccccc3)n2)cc1 | inactive | inactive | 
32 | O=C(O)c1ccc(-n2cc(/C=N/Nc3ccc(Cl)cc3)c(-c3ccccc3)n2)cc1 | 13 mm | 16 mm | inhibition zone (IZ) [5]: 54 mm; inhibition zone (IZ) [6]: 8 mm; MIC [7]: 4 µg/mL (≈ 9.6 µM); CC50 [4]: > 32 µg/mL; Ratio [10]: 4
33 | CN1CCN(/N=C/c2cn(-c3ccc(C(=O)O)cc3)nc2-c2ccccc2)CC1 | inactive | inactive | inhibition zone (IZ) [5, 11]: inactive; inhibition zone (IZ) [6]: inactive
34 | O=C(O)c1ccc(-n2cc(/C=N/NC(=O)c3ccc(F)cc3)c(-c3ccccc3)n2)cc1 | inactive | inactive | 
35 | CC(=O)N/N=C/c1cn(-c2ccc(C(=O)O)cc2)nc1-c1ccccc1 | inactive | inactive | 
36 | O=C(O)c1ccc(-n2cc(CNc3ccc(F)c(C(F)(F)F)c3)c(-c3ccccc3)n2)cc1 | 22 mm | 21 mm | MIC [3]: 32 µg/mL (≈ 70.3 µM); CC50 [4]: > 32 µg/mL
37 | Cc1ccccc1NCc1cn(-c2ccc(C(=O)O)cc2)nc1-c1ccccc1 | 16 mm | 14 mm | 
38 | O=C(O)c1ccc(-n2cc(/C=N/NS(=O)(=O)c3ccccc3)c(-c3ccccc3)n2)cc1 | 10 mm | 9 mm | 
39 | O=C(O)c1ccc(N/N=C/c2cn(-c3ccc(C(=O)O)cc3)nc2-c2ccccc2)cc1 | inactive | inactive | inhibition zone (IZ) [5, 11]: inactive; inhibition zone (IZ) [6]: inactive
40 | O=C(N[C@H](CO)[C@H](O)c1ccc([N+](=O)[O-])cc1)C(Cl)Cl [CHLORAMPHENICOL] | 36 mm | 25 - 36 mm | inhibition zone (IZ) [5]: 18 - 22 mm; inhibition zone (IZ) [6]: 39 mm; MIC [7]: 16 µg/mL (≈ 49.5 µM)
41 | O=C(O)c1ccc(-n2cc(/C=N/Nc3ccccc3F)c(-c3ccccc3)n2)cc1 | 17 mm | 13 mm | inhibition zone (IZ) [5]: 34 mm; inhibition zone (IZ) [6]: inactive
